Format in all cases: biochemical
Holding throughout (details): 1 μM inhibitor concentration

One assay has as its target IRAK4 (Homo sapiens (Human), UniProt Q9NWZ3). In words: IRAK4 kinase selectivity assay. The protocol: IRAK4 (5-20 mU diluted in 50 mM Tris pH 7.5, 0.1 mM EGTA, 0.1% 0-mercaptoethanol, 1 mg/ml BSA) is assayed against MBP in a final volume of 25.5 μl containing 50 mM Tris pH 7.5, 0.1 mM EGTA, 0.33 mg/ml MBP, 10 mM magnesium acetate and 0.02 mM [33P-γ-ATP] (50-1000 cpm/pmole) and incubated for 30 min at room temperature. Assays are stopped by addition of 5 μl of 0.5 M (3%) orthophosphoric acid and then harvested onto P81 Unifilter plates with a wash buffer of 50 mM orthophosphoric acid.

In another assay the target is PLK1 (Homo sapiens (Human), UniProt P53350). In words: PLK1 kinase selectivity assay. The protocol:
PLK1 (5-20 mU diluted in 50 mM Tris pH 7.5, 0.1 mM EGTA, 0.1% b-mercaptoethanol, 1 mg/ml BSA, 100 μM Vanadate) is assayed against a substrate peptide ([…]) in a final volume of 25.5 μl containing 50 mM Tris pH 7.5, 0.05% b-mercaptoethanol, 10 μM Vanadate, 300 μM substrate peptide, 10 mM magnesium acetate and 0.005 mM [33P-g-ATP] (50-1000 cpm/pmole) and incubated for 30 min at room temperature. Assays are stopped by addition of 5 μl of 0.5 M (3%) orthophosphoric acid and then harvested onto P81 Unifilter plates with a wash buffer of 50 mM orthophosphoric acid.
PLK1 (5-20 mU diluted in 50 mM Tris pH 7.5, 0.1 mM EGTA, 0.1% b-mercaptoethanol, 1 mg/ml BSA, 100 µM Vanadate) is assayed against a substrate peptide ([…]) in a final volume of 25.5 μl containing 50 mM Tris pH 7.5, 0.05% b-mercaptoethanol, […], 300 μM substrate peptide, 10 mM magnesium acetate and 0.005 mM [33P-g-ATP] (50-1000 cpm/pmole) and incubated for 30 min at room temperature. Assays are stopped by addition of 5 μl of 0.5 M (3%) orthophosphoric acid and then harvested onto P81 Unifilter plates with a wash buffer of 50 mM orthophosphoric acid.

Another assay concerns the target PKCa (Homo sapiens (Human), UniProt P17252). The assay can be described thus: PKCa kinase selectivity assay. The protocol: PKCa (5-20 mU diluted in 20 mM Hepes pH 7.4, 0.03% Triton X-100) is assayed against Histone H1 in the presence of PtdSerine and DAG (0.1 mg/ml. and 10 μg/ml) and 0.1 mM CaCl2. The assay is carried out in a final volume of 25.5 μl containing 20 mM Hepes pH 7.4, 0.03% Triton X-100, 0.1 mg/ml Histone H1, 10 mM magnesium acetate and 0.02 mM[33P-g-ATP] (50-1000 cpm/pmole) and incubated for 30 min at room temperature. Assays are stopped by addition of 5 μl of 0.5 M (3%) orthophosphoric acid and then harvested onto P81 Unifilter plates with a wash buffer of 50 mM orthophosphoric acid.
PtdSer/DAG preparation:—PtdSer stock=10 mg/ml in MeOH/Chloroform (1:2). Dry down required amount. Resuspend in appropriate volume of 10 mM Hepes pH 7.4. Vortex and briefly sonicate. (2×10-15 seconds at 10-15 seconds apart). DAG stock=10 mg/ml in MeOH/chloroform (1:2). Dry down required amount. Add sonicated PtdSer solution. Vortex and sonicate.

For a further assay, the target named is GSK3b (Homo sapiens (Human), UniProt P49841). The assay can be described thus: GSK3b kinase selectivity assay. The method, then: GSK3b (5-20 mU diluted in 20 mM MOPS pH 7.5, 1 mM EDTA, 0.01% Brij35, 5% glycerol, 0.1% b-mercaptoethanol, 1 mg/ml BSA) is assayed against Phospho-GS2 peptide ([…](PO4)EDEEE) in a final volume of 25.5 μl containing 8 mM MOPS pH 7.0, 0.2 mM EDTA, 20 μM Phospho GS2 peptide, 10 mM magnesium acetate and 0.005 mM [33P-g-ATP] (50-1000 cpm/pmole) and incubated for 30 min at room temperature. Assays are stopped by addition of 5 μl of 0.5 M (3%) orthophosphoric acid and then harvested onto P81 Unifilter plates with a wash buffer of 50 mM orthophosphoric acid.
GSK3b, sequence (P49841 whole entry, species assumed): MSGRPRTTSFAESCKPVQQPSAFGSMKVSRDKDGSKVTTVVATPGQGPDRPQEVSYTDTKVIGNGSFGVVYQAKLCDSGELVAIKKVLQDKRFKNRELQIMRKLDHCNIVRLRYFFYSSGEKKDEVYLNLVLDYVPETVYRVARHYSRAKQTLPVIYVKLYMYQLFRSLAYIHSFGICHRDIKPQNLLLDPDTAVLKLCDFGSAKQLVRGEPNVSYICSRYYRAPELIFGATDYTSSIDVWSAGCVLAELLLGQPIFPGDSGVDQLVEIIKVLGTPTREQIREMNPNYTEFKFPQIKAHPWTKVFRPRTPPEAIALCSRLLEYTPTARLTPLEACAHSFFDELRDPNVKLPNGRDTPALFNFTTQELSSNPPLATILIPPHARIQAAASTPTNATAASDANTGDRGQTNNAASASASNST

The next assay has as its target ERK1 (Homo sapiens (Human), UniProt P27361). The assay can be described thus: ERK1 kinase selectivity assay. The protocol:
5-20 mU of ERK1 (diluted in 50 mM Tris (pH 7.5), 0.1 mM EGTA, 1 mg/ml BSA, 0.1%, b-Mercaptoethanol) is assayed against MBP in a final volume of 25.5 μl containing 50 mM Tris (pH 7.5), 0.1 mM EGTA, 0.1%, b-Mercaptoethanol, 0.33 mg/ml MBP, 10 mM magnesium acetate and 0.005 mM [33P-g-ATP](500-1000 cpm/pmole) and incubated for 30 mins at room temperature. Assays are stopped by addition of 5 μl of 0.5M (3%) orthophosphoric acid. Assays are harvested onto P81 Unifilter plates using a wash buffer of 50 mM orthophosphoric acid.

Another assay addresses IRR (Homo sapiens (Human), UniProt P14616). The assay can be described thus: IRR kinase selectivity assay. The method, then:
5-20 mU of IRR (diluted in 50 mM Hepes (pH 7.5), 0.1 mM EGTA) is assayed against MBP in a final volume of 25.5 μl containing 50 mM Hepes (pH 7.5), 0.1 mM EGTA, 0.33 mg/ml MBP, 10 mM magnesium acetate and 0.005 mM [33P-g-ATP](500-1000 cpm/pmole) and incubated for 30 mins at room temperature. Assays are stopped by addition of 5 μl of 0.5M (3%) orthophosphoric acid. Assays are harvested onto P81 Unifilter plates using a wash buffer of 50 mM orthophosphoric acid.

A further assay has as its target DYRK1A (Homo sapiens (Human), UniProt Q13627). In words: DYRK1A kinase selectivity assay. The protocol: DYRK 1A (5-20 mU of diluted in 50 mM Tris pH7.5, 0.1 mM EGTA) is assayed against Woodtide ([…]) in a final volume of 25.5 μl containing 50 mM Tris pH 7.5, 0.1 mM EGTA, 350 μM substrate peptide, 10 mM Magnesium acetate and 0.05 mM [33P-g-ATP](50-1000 cpm/pmole) and incubated for 30 min at room temperature. Assays are stopped by addition of 5 μl of 0.5 M (3%) orthophosphoric acid and then harvested onto P81 Unifilter plates with a wash buffer of 50 mM orthophosphoric acid.

IRAK4, sequence (Q9NWZ3 whole entry, species assumed): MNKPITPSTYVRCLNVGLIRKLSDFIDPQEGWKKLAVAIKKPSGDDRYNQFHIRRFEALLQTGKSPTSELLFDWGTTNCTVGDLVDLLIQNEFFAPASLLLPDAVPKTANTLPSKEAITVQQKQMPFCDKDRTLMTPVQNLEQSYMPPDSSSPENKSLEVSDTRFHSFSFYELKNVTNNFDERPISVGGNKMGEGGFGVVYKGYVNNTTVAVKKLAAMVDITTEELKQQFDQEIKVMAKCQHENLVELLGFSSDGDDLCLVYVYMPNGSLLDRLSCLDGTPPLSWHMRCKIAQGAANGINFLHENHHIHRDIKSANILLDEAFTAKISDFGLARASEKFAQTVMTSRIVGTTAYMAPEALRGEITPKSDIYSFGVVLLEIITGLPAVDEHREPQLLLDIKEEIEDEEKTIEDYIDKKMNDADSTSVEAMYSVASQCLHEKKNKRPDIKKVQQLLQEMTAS
ERK1, sequence (P27361 whole entry, species assumed): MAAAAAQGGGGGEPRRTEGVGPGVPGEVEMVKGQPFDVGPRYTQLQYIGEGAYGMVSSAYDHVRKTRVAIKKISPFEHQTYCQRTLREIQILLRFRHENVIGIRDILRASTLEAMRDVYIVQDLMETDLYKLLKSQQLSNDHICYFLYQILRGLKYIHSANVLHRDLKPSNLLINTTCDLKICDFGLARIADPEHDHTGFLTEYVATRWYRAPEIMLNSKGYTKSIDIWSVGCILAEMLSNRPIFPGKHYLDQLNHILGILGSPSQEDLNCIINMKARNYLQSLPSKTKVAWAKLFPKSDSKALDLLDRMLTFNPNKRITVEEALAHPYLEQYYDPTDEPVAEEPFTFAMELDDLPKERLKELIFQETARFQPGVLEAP
IRR, sequence (P14616 27-1297, species assumed): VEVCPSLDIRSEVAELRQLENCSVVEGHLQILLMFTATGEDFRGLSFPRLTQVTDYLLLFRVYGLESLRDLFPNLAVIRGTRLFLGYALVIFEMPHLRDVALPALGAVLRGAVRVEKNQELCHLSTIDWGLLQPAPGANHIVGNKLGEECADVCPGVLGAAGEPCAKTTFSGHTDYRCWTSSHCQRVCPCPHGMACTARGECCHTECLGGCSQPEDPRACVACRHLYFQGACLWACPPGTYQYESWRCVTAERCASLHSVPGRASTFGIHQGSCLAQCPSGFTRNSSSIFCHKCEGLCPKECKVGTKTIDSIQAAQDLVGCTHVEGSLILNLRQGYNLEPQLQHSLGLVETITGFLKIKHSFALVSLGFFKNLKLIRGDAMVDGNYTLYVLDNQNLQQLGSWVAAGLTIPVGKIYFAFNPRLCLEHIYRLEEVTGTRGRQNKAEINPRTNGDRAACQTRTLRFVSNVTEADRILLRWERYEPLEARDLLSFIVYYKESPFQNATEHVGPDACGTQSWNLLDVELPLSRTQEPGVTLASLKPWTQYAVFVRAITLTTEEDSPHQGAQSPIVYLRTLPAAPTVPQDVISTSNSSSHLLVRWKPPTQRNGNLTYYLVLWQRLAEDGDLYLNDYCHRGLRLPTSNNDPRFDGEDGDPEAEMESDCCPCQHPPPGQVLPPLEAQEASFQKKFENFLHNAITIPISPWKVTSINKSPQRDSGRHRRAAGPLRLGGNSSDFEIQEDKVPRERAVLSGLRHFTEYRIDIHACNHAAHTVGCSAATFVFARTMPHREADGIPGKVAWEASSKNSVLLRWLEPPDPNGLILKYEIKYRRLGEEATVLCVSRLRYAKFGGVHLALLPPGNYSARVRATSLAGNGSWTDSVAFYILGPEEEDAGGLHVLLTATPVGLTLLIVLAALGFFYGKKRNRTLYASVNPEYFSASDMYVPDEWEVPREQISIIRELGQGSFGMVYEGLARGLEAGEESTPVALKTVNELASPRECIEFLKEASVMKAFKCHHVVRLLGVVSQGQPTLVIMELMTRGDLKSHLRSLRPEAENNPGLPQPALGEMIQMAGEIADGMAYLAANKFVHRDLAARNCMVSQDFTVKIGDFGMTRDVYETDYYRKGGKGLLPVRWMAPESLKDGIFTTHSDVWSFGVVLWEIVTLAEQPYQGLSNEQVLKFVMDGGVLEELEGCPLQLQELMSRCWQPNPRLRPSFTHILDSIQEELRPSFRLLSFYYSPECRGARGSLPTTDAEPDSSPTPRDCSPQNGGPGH
PLK1, sequence (P53350 whole entry, species assumed): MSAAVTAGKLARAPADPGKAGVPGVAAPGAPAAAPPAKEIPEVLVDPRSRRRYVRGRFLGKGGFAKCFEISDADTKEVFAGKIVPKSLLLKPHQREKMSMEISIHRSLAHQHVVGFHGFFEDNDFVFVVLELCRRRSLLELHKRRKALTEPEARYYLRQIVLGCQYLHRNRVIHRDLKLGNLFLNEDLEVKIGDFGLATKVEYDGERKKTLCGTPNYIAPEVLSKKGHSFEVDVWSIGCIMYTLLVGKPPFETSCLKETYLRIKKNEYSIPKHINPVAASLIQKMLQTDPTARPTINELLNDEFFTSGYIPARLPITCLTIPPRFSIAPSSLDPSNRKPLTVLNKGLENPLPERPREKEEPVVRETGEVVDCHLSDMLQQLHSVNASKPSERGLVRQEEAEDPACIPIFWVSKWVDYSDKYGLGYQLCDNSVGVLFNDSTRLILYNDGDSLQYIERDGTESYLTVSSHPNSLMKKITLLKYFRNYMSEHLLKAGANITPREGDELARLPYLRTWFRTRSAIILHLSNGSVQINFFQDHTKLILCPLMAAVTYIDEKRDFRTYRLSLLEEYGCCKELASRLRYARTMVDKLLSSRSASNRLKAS

With `c1cc2[nH]nc3c2c(n1)N(C1CCC1)CCC3` [Example 22, 6-cyclobutyl-6,7,8,9-tetrahydro-2H-1,2,5,6-tetraazabenzo[cd]azulene], the “percentage inhibition of IRAK4” value at IRAK4 turned out to be 13 percentage. Also, the “percentage inhibition of PLK1” value at PLK1 is recorded as 4 percentage. For the same compound, the “percentage inhibition of PKCa” value at PKCa amounted to 0 percentage. Also, the “percentage inhibition of GSK3b” value at GSK3b was 16 percentage. On ERK1, the “percentage inhibition of ERK1” value is on record as 0 percentage. The “percentage inhibition of IRR” value on IRR came to 8 percentage. Besides, the “percentage inhibition of DYRK1A” value on DYRK1A is given as 16 percentage.

In the case of `c1cc2[nH]nc3c2c(n1)N(C1CCCC1)CCC3` [Example 23, 6-cyclopentyl-6,7,8,9-tetrahydro-2H-1,2,5,6-tetraazabenzo[cd]azulene], the “percentage inhibition of IRAK4” value at IRAK4 is listed as 0 percentage. Further, the “percentage inhibition of PLK1” value on PLK1 turned out to be 3 percentage. In addition, at PKCa, the “percentage inhibition of PKCa” value is given as 0 percentage. The “percentage inhibition of GSK3b” value at GSK3b amounted to 0 percentage. Besides, the “percentage inhibition of ERK1” value at ERK1 came to 0 percentage. The “percentage inhibition of IRR” value on IRR is given as 4 percentage. The “percentage inhibition of DYRK1A” value at DYRK1A is 0 percentage.

Consider `c1cc2[nH]nc3c2c(n1)N(C1CCOCC1)CCC3` [Example 29, 6-(tetrahydro-2H-pyran-4-yl)-6,7,8,9-tetrahydro-2H-1,2,5,6-tetraazabenzo[cd]azulene], for which the “percentage inhibition of IRAK4” value at IRAK4 was 15 percentage. On PLK1, the “percentage inhibition of PLK1” value was determined as 0 percentage. Moreover, the “percentage inhibition of PKCa” value at PKCa is reported as 11 percentage. In addition, the “percentage inhibition of GSK3b” value at GSK3b stood at 0 percentage. The “percentage inhibition of ERK1” value at ERK1 was 0 percentage. In addition, the “percentage inhibition of IRR” value on IRR is on record as 6 percentage. Moreover, the “percentage inhibition of DYRK1A” value at DYRK1A was 4 percentage.

On to `CN1CCC(N2Cc3ccccc3-c3n[nH]c4ccnc2c34)CC1` [Example 55], for which the “percentage inhibition of IRAK4” value on IRAK4 is 9 percentage. Moreover, the “percentage inhibition of PLK1” value at PLK1 turned out to be 28 percentage. Also, the “percentage inhibition of PKCa” value on PKCa amounted to 0 percentage. Besides, on GSK3b, the “percentage inhibition of GSK3b” value amounted to 0 percentage. Further, the “percentage inhibition of ERK1” value at ERK1 came out at 4 percentage. Also, the “percentage inhibition of IRR” value on IRR turned out to be 18 percentage. In addition, on DYRK1A, the “percentage inhibition of DYRK1A” value is recorded as 8 percentage.

Consider `CC(C)n1ncc2c1CN(C1CCN(C)CC1)c1nccc3[nH]nc-2c13` [Example 68], for which the “percentage inhibition of IRAK4” value on IRAK4 was found to be 14 percentage. The “percentage inhibition of PLK1” value at PLK1 came out at 21 percentage. Moreover, the “percentage inhibition of PKCa” value at PKCa turned out to be 2 percentage. Further, at GSK3b, the “percentage inhibition of GSK3b” value is on record as 0 percentage. Further, on ERK1, the “percentage inhibition of ERK1” value was 11 percentage. Besides, the “percentage inhibition of IRR” value at IRR came out at 1 percentage. Also, the “percentage inhibition of DYRK1A” value on DYRK1A came to 0 percentage.
